For the first assay, the target named is T1, hGPR119 (Homo sapiens, UniProt Q8TDV5).
T1 construct: expressed in transfected cells; host or cells: CHO
T1 sequence (Q8TDV5 1-335): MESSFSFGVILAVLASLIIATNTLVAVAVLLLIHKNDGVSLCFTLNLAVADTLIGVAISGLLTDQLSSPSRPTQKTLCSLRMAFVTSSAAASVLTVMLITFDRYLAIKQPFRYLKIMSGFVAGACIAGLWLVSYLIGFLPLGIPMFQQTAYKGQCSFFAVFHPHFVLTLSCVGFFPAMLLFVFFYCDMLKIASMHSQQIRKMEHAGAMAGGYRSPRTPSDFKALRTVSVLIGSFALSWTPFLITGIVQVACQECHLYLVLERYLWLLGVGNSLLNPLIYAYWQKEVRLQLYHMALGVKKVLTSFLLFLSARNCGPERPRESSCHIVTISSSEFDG
Nature of the assay: In vitro cyclic AMP assay (Cisbio dynamic 2 HTRF kit) in CHO-hGPR119 cells. In kind it is cell-based. To be noted: 1 h, cAMP, compound at 1 μM, 60 min, read-out: Induction (% induction at 1 μM). Background: TR-FRET usually uses a lanthanide donor and a delayed reading to cut background.
As to `CC(Oc1nc2ccc(-c3ccc(S(C)(=O)=O)cc3)nc2s1)C1CCN(c2ncc(Cl)cn2)CC1` (centres unmarked) [Compound 1120, 2-(1-(1-(5-chloropyrimidin-2-yl)piperidin-4-yl)ethoxy)-5-(4-(methylsulfonyl)phenyl)thiazolo[5,4-b]pyridine], the activation at 1 µM was determined as 40%.

Regarding `Cc1cc2nc(OC(C)C3CCN(c4nc(C(C)C)no4)CC3)sc2nc1-c1ccc(S(C)(=O)=O)cc1` (centres unmarked) [Compound 1039, 3-isopropyl-5-(4-(1-((6-methyl-5-(4-(methylsulfonyl)phenyl)thiazolo[5,4-b]pyridin-2-yl)oxy)ethyl)piperidin-1-yl)-1,2,4-oxadiazole], the activation at 1 µM came to 20%.

With `CC(C)OC(=O)Oc1nc2ccc(-c3ccc(S(C)(=O)=O)cc3)nc2s1` [Compound 1019, isopropyl (5-(4-(methylsulfonyl)phenyl)thiazolo[5,4-b]pyridin-2-yl)carbonate], the activation at 1 µM stood at 0%.

Consider `COCCNC(=O)c1ccc(-c2ccc3nc(N4CCC(c5nc(C(C)C)no5)CC4)sc3n2)cc1` [Compound 1024, 4-(2-(4-(3-isopropyl-1,2,4-oxadiazol-5-yl)piperidin-1-yl)thiazolo[5,4-b]pyridin-5-yl)-N-(2-methoxyethyl)benzamide], for which the activation at 1 µM came out at 53%.

As to `CC(Oc1nc2ccc(-c3ccc(S(C)(=O)=O)nc3)nc2s1)C1CCN(c2ncc(C(F)(F)F)cn2)CC1` (centres unmarked) [Compound 1159, 2-(1-(1-(5-(trifluoromethyl)pyrimidin-2-yl)piperidin-4-yl)ethoxy)-5-(6-(methylsulfonyl)pyridin-3-yl)thiazolo[5,4-b]pyridine], the activation at 1 µM amounted to 70%.

With `CC(C)c1noc(N2CCC(C(Oc3nc4ccc(-c5ccc(S(C)(=O)=O)cc5)nc4s3)C3CC3)CC2)n1` (centres unmarked) [Compound 1040, 5-(4-(cyclopropyl((5-(4-(methylsulfonyl)phenyl)thiazolo[5,4-b]pyridin-2-yl)oxy)methyl)piperidin-1-yl)-3-isopropyl-1,2,4-oxadiazole], the activation at 1 µM was 48%.

Take `CC(CC1CCN(c2nc(C(C)C)no2)CC1)Oc1nc2ccc(-c3ccc(S(C)(=O)=O)cc3)nc2s1` (centres unmarked) [Compound 1043, 3-isopropyl-5-(4-(2-((5-(4-(methylsulfonyl)phenyl)thiazolo[5,4-b]pyridin-2-yl)oxy)propyl)piperidin-1-yl)-1,2,4-oxadiazole]: the activation at 1 µM stood at 4%.

For the compound `CCc1cnc(N2CCC([C@H](C)Oc3nc4ccc(-c5ccc(C(F)(F)F)nc5)nc4s3)CC2)nc1` [Compound 1154, (S)-2-(1-(1-(5-ethylpyrimidin-2-yl)piperidin-4-yl)ethoxy)-5-(6-(trifluoromethyl)pyridin-3-yl)thiazolo[5,4-b]pyridine], the activation at 1 µM is 65%.

For `CC(C)c1cnc(N2CCC(C(C)Oc3nc4ccc(-c5ccc(S(C)(=O)=O)cc5)nc4s3)CC2)nc1` (centres unmarked) [Compound 1113, 2-(1-(1-(5-isopropylpyrimidin-2-yl)piperidin-4-yl)ethoxy)-5-(4-(methylsulfonyl)phenyl)thiazolo[5,4-b]pyridine], the activation at 1 µM was 57%.

Consider `CC(C)c1noc(N2CCC(C(C)Oc3nc4ccc(-c5ccc(S(C)(=O)=O)c(F)c5)nc4s3)CC2)n1` (centres unmarked) [Compound 1100, 5-(4-(1-((5-(3-fluoro-4-(methylsulfonyl)phenyl)thiazolo[5,4-b]pyridin-2-yl)oxy)ethyl)piperidin-1-yl)-3-isopropyl-1,2,4-oxadiazole], for which the activation at 1 µM is 65%.

As for `CC(C=C1CCN(c2nc(C(C)C)no2)CC1)Oc1nc2ccc(-c3ccc(S(C)(=O)=O)cc3)nc2s1` (centres unmarked) [Compound 1044, 3-isopropyl-5-(4-(2-((5-(4-(methylsulfonyl)phenyl)thiazolo[5,4-b]pyridin-2-yl)oxy)propylidene)piperidin-1-yl)-1,2,4-oxadiazole], the activation at 1 µM stood at 3%.

Consider `CC(C)c1noc(N2CCC([C@@H](C)Oc3nc4ccc(-c5ccc(S(C)(=O)=O)cc5)nc4s3)CC2)n1` [Compound 1032, (R)-3-isopropyl-5-(4-(1-((5-(4-(methylsulfonyl)phenyl)thiazolo[5,4-b]pyridin-2-yl)oxy)ethyl)piperidin-1-yl)-1,2,4-oxadiazole], for which the activation at 1 µM was found to be 13%.

For `CC(C)c1noc(C2CCN(c3nc4ccc(-c5ccc(S(C)(=O)=O)cc5)nc4s3)C2)n1` (centres unmarked) [Compound 1021, 3-isopropyl-5-(1-(5-(4-(methylsulfonyl)phenyl)thiazolo[5,4-b]pyridin-2-yl)pyrrolidin-3-yl)-1,2,4-oxadiazole], the activation at 1 µM was 13%.

As to `CC(C)c1noc(N2CCC(C(C)Oc3nc4ccc(-c5cc[n+]([O-])cc5)nc4s3)CC2)n1` (centres unmarked) [Compound 1098, 4-(2-(1-(1-(3-isopropyl-1,2,4-oxadiazol-5-yl)piperidin-4-yl)ethoxy)thiazolo[5,4-b]pyridin-5-yl)pyridine 1-oxide], the activation at 1 µM came to 48%.

As to `CC(Oc1nc2ccc(-c3ccc(S(C)(=O)=O)cc3)nc2s1)C1CCN(C(=O)OC2(C)CC2)CC1` (centres unmarked) [Compound 1117, 1-methylcyclopropyl 4-(1-((5-(4-(methylsulfonyl)phenyl)thiazolo[5,4-b]pyridin-2-yl)oxy)ethyl)piperidine-1-carboxylate], the activation at 1 µM was found to be 2%.

Take `COCC[S+]([O-])c1ccc(-c2ccc3nc(OC(C)C4CCN(c5nc(C(C)C)no5)CC4)sc3n2)cc1` (centres unmarked) [Compound 1068, 3-isopropyl-5-(4-(1-((5-(4-((2-methoxyethyl)sulfinyl)phenyl)thiazolo[5,4-b]pyridin-2-yl)oxy)ethyl)piperidin-1-yl)-1,2,4-oxadiazole]: the activation at 1 µM turned out to be 13%.

For `COCCNS(=O)(=O)c1ccc(-c2ccc3nc(OC(C)C4CCN(c5nc(C(C)C)no5)CC4)sc3n2)cc1` (centres unmarked) [Compound 1066, 4-(2-(1-(1-(3-isopropyl-1,2,4-oxadiazol-5-yl)piperidin-4-yl)ethoxy)thiazolo[5,4-b]pyridin-5-yl)-N-(2-methoxyethyl)benzenesulfonamide], the activation at 1 µM worked out at 30%.

In the case of `CCc1cnc(N2CCN(c3nc4ccc(Oc5ccc(S(C)(=O)=O)cc5)nc4s3)CC2)nc1` [Compound 1010, 2-(4-(5-ethylpyrimidin-2-yl)piperazin-1-yl)-5-(4-(methylsulfonyl)phenoxy)thiazolo[5,4-b]pyridine], the activation at 1 µM is 8%.

Consider `CCc1cnc(N2CCC(C(C)Oc3nc4ccc(-c5ccncc5)nc4s3)CC2)nc1` (centres unmarked) [Compound 1149, 2-(1-(1-(5-ethylpyrimidin-2-yl)piperidin-4-yl)ethoxy)-5-(pyridin-4-yl)thiazolo[5,4-b]pyridine], for which the activation at 1 µM was determined as 64%.

`CC(C)c1noc(N2CCC([C@H](C)Oc3nc4ccc(-c5ccc(C(=O)N(C)C)cc5)nc4s3)CC2)n1` [Compound 1045, (S)-4-(2-(1-(1-(3-isopropyl-1,2,4-oxadiazol-5-yl)piperidin-4-yl)ethoxy)thiazolo[5,4-b]pyridin-5-yl)-N,N-dimethylbenzamide]: the activation at 1 µM was found to be 31%.

With `CC(C)OC(=O)N1CCC(c2nc3ccc(-c4ccc(S(C)(=O)=O)cc4)nc3s2)CC1` [Compound 1013, isopropyl 4-(5-(4-(methylsulfonyl)phenyl)thiazolo[5,4-b]pyridin-2-yl)piperidine-1-carboxylate], the activation at 1 µM is 11%.

Consider `CC(C)c1noc(N2CCC(C(C)Oc3nc4ccc(-c5ccc(C(=O)N(C)C6CC6)cc5)nc4s3)CC2)n1` (centres unmarked) [Compound 1052, N-cyclopropyl-4-(2-(1-(1-(3-isopropyl-1,2,4-oxadiazol-5-yl)piperidin-4-yl)ethoxy)thiazolo[5,4-b]pyridin-5-yl)-N-methylbenzamide], for which the activation at 1 µM was determined as 13%.

Regarding `CC(C)OC(=O)N1CC=C(c2nc3ccc(-c4ccc(S(C)(=O)=O)cc4)nc3s2)CC1` [Compound 1011, isopropyl 4-(5-(4-(methylsulfonyl)phenyl)thiazolo[5,4-b]pyridin-2-yl)-5,6-dihydropyridine-1(2H)-carboxylate], the activation at 1 µM is 19%.

As for `CC(C)c1noc(N2CCC(C(Oc3nc4ccc(-c5ccnc(F)c5)nc4s3)C(F)(F)F)CC2)n1` (centres unmarked) [Compound 1103, 3-isopropyl-5-(4-(2,2,2-trifluoro-1-((5-(2-fluoropyridin-4-yl)thiazolo[5,4-b]pyridin-2-yl)oxy)ethyl)piperidin-1-yl)-1,2,4-oxadiazole], the activation at 1 µM amounted to 63%.

With `CC(C)c1noc(N2CCC(C(C)Oc3nc4ccc(-c5ccc(N6CCCC6=O)nc5)nc4s3)CC2)n1` (centres unmarked) [Compound 1146, 1-(5-(2-(1-(1-(3-isopropyl-1,2,4-oxadiazol-5-yl)piperidin-4-yl)ethoxy)thiazolo[5,4-b]pyridin-5-yl)pyridin-2-yl)pyrrolidin-2-one], the activation at 1 µM was 61%.

The assay is the same for the next values; noted with them: cAMP.
The EC50 is the concentration at which the effect is half-maximal. For the compound `CC(C)c1noc(N2CCC([C@H](C)Oc3nc4ccc(-c5ccncc5F)nc4s3)CC2)n1` [Compound 1096, (S)-5-(4-(1-((5-(3-fluoropyridin-4-yl)thiazolo[5,4-b]pyridin-2-yl)oxy)ethyl)piperidin-1-yl)-3-isopropyl-1,2,4-oxadiazole], the concentration giving a half-maximal response (EC50) fell in the range of 0.05 to 0.1 µM.

`CCc1cnc(N2CCC([C@H](C)Oc3nc4ccc(-c5ccc(C(F)(F)F)nc5)nc4s3)CC2)nc1` [Compound 1154, (S)-2-(1-(1-(5-ethylpyrimidin-2-yl)piperidin-4-yl)ethoxy)-5-(6-(trifluoromethyl)pyridin-3-yl)thiazolo[5,4-b]pyridine]: the EC50 was 0.025 to 0.05 µM.

The assay is the same for the next values; noted with them: cAMP, compound at 1 μM, 60 min.
Turning to `CC(C)c1noc(N2CCC([C@H](C)Oc3nc4ccc(-c5ccncc5F)nc4s3)CC2)n1` [Compound 1096, (S)-5-(4-(1-((5-(3-fluoropyridin-4-yl)thiazolo[5,4-b]pyridin-2-yl)oxy)ethyl)piperidin-1-yl)-3-isopropyl-1,2,4-oxadiazole], the “Induction (% induction at 1 μM)” value is 66%.

For the next assay, the system named is Male C57BL/6 mice. Nature of the assay: Oral glucose tolerance test in C57BL/6 mice. In kind it is in vivo. To be noted: 3 mpk and 10 mpk, glucose 2 g/kg. The procedure: Male C57BL/6 mice (8-10 weeks) were grouped based on basal glucose levels and animals were fasted for 16 hours. Glucose level of each animal was estimated in blood collected from tail vein before animals were dosed orally with 0.5% Tween 80 and 0.5% NaCMC (vehicle control) and compounds at 3 and 10 mpk (n=5). After 30 minutes of compound dosing, blood glucose was again estimated and 2 g/kg/10 ml (20%) of Glucose solution was administered orally to all the animals. Blood glucose was estimated at 15, 30, 60, 90 and 120 minutes time points after glucose administration. Accu-Check active blood glucose meter was utilised for estimation of blood from tail vein.
Glucose reduction observed in animals treated with compounds of present invention is represented in terms of % AUC reduction. A greater glucose reduction in oral glucose tolerance test indicates the compound's efficacy in this rodent species.
`CC(Oc1nc2ccc(-c3ccc(S(C)(=O)=O)cc3)nc2s1)C1CCN(c2ncc(Cl)cn2)CC1` (centres unmarked) [Compound 1120, 2-(1-(1-(5-chloropyrimidin-2-yl)piperidin-4-yl)ethoxy)-5-(4-(methylsulfonyl)phenyl)thiazolo[5,4-b]pyridine]: the “glucose reduction (% AUC reduction) in oral glucose tolerance test” value was “significant dose dependent glucose reduction”.

(Values after patent US10526345B2, “Compounds as GPR119 agonists” (Mankind Pharma Ltd., priority 2016, dated 2020).)
